Measurements taken from publication PMC6407913, “DREADD Agonist 21 Is an Effective Agonist for Muscarinic-Based DREADDs in Vitro and in Vivo” (ACS Pharmacology & Translational Science, 2018).
Several values for one entry are separate records, joined by “and”; a condition that tells them apart may be missing. Equal entries are not always repeated. Where two headings read alike, the source gives them in different places.

Assays:
Format in all cases: cell-based
[1] = molecular target: 318 nonolfactory human GPCRs (Homo sapiens, UniProt P21462); details: FPR1; C21 5 µM
[2] = molecular target: 318 nonolfactory human GPCRs (Homo sapiens, UniProt P32238); details: CCKAR; C21 5 µM
[3] = molecular target: T1, 318 nonolfactory human GPCRs (Homo sapiens, UniProt Q14330); details: GPR18; C21 5 µM
T1 construct: expressed in transfected cells; host or cells: HTLA cells, transient

[4] = molecular target: T2, 318 nonolfactory human GPCRs (Homo sapiens, UniProt P34998); details: CRHR1; C21 5 µM
T2 construct: expressed in transfected cells; host or cells: HTLA cells, transient
T2 sequence (P34998 24-415): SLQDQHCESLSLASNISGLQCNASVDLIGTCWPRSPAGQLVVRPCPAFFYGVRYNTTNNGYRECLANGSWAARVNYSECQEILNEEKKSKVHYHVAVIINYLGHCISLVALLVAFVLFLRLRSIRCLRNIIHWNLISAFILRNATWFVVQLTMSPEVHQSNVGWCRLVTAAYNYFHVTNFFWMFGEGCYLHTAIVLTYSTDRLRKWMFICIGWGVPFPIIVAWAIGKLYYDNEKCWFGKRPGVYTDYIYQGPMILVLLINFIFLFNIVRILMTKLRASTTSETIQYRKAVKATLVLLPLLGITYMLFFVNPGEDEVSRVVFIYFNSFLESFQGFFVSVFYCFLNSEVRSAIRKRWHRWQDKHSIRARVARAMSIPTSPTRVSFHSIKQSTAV

[5] = molecular target: T3, 318 nonolfactory human GPCRs (Homo sapiens, UniProt Q15760); details: GPR19; C21 5 µM
T3 construct: expressed in transfected cells; host or cells: HTLA cells, transient

[6] = molecular target: T4, 318 nonolfactory human GPCRs (Homo sapiens, UniProt Q8TDS7); details: MRGPRD; C21 5 µM
T4 construct: expressed in transfected cells; host or cells: HTLA cells, transient

[7] = molecular target: T5, 318 nonolfactory human GPCRs (Homo sapiens, UniProt P47775); details: GPR12; C21 5 µM
T5 construct: expressed in transfected cells; host or cells: HTLA cells, transient

[8] = tested on: 318 nonolfactory human GPCRs; details: for FOLD OVER BASAL: C21 5 µM
[9] = molecular target: T6, 318 nonolfactory human GPCRs (Homo sapiens, UniProt O15552); details: FFA2; C21 5 µM
T6 construct: expressed in transfected cells; host or cells: HTLA cells, transient

[10] = molecular target: T7, 318 nonolfactory human GPCRs (Homo sapiens, UniProt Q01726); details: MC1R; C21 5 µM
T7 construct: expressed in transfected cells; host or cells: HTLA cells, transient
T7 sequence (Q01726 whole entry): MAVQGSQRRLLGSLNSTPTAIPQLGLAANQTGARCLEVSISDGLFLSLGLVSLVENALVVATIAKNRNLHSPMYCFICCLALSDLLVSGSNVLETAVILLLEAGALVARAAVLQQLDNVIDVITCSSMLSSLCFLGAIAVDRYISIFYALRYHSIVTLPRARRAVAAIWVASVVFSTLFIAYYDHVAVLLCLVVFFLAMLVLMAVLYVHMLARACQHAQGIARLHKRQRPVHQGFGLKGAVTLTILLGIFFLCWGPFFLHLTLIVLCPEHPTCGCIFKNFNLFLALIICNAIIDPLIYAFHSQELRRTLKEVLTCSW

[11] = molecular target: 318 nonolfactory human GPCRs (Homo sapiens, UniProt P47872); details: SCTR; C21 5 µM
[12] = molecular target: T8, 318 nonolfactory human GPCRs (Homo sapiens, UniProt P25101); details: EDNRA; C21 5 µM
T8 construct: expressed in transfected cells; host or cells: HTLA cells, transient

[13] = molecular target: 318 nonolfactory human GPCRs (Homo sapiens, UniProt P61073); details: CXCR4; C21 5 µM
Sequence of 318 nonolfactory human GPCRs (Homo sapiens, UniProt P61073) (P61073 whole entry): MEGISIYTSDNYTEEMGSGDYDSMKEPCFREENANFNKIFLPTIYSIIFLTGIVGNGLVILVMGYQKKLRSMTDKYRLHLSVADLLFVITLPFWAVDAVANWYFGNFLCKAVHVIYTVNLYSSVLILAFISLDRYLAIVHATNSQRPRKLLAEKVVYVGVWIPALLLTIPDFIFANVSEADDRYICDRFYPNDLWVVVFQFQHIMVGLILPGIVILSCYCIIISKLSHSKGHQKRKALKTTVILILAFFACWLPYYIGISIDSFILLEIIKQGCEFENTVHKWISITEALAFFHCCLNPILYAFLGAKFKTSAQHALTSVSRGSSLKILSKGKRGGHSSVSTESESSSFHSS

[14] = molecular target: T9, 318 nonolfactory human GPCRs (Homo sapiens, UniProt Q9BY21); details: GPR87; C21 5 µM
T9 construct: expressed in transfected cells; host or cells: HTLA cells, transient
T9 sequence (Q9BY21 whole entry): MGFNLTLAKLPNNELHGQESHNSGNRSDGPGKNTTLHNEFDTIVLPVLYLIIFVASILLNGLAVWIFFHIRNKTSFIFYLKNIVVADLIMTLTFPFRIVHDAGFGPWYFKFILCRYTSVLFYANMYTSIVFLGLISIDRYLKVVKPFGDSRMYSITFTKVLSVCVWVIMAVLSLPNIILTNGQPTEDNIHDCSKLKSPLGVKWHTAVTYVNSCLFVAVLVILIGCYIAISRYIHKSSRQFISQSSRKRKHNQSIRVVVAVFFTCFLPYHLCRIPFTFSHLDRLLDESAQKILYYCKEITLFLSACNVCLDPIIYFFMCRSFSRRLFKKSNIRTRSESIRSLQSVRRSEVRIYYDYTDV

[15] = molecular target: T10, 318 nonolfactory human GPCRs (Homo sapiens, UniProt P46089); details: GPR3; C21 5 µM
T10 construct: expressed in transfected cells; host or cells: HTLA cells, transient
T10 sequence (P46089 whole entry): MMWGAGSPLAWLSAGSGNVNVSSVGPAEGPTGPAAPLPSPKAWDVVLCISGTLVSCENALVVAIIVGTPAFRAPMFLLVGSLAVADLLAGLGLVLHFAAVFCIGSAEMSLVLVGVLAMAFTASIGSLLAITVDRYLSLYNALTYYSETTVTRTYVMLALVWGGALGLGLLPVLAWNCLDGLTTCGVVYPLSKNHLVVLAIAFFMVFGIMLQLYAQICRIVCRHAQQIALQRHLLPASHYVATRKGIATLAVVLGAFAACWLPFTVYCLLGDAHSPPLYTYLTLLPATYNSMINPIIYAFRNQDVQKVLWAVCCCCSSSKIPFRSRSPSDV

[16] = molecular target: T11, 318 nonolfactory human GPCRs (Homo sapiens, UniProt P32302); details: CXCR5; C21 5 µM
T11 construct: expressed in transfected cells; host or cells: HTLA cells, transient

[17] = molecular target: T12, 318 nonolfactory human GPCRs (Homo sapiens, UniProt P30559); details: OXTR; C21 5 µM
T12 construct: expressed in transfected cells; host or cells: HTLA cells, transient
T12 sequence (P30559 whole entry): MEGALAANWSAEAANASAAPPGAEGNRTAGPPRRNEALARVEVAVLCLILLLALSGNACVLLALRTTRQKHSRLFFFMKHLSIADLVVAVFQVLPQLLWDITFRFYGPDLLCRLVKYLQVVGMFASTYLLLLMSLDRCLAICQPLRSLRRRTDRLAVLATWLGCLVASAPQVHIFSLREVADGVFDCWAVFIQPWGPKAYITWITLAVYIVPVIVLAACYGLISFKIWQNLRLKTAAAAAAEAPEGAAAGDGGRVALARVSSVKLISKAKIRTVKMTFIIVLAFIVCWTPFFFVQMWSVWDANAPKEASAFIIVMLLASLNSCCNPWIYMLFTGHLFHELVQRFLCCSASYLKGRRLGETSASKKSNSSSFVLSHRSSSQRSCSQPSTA

[18] = molecular target: T13, 318 nonolfactory human GPCRs (Homo sapiens, UniProt Q8NGU9); details: GPR150; C21 5 µM
T13 construct: expressed in transfected cells; host or cells: HTLA cells, transient
T13 sequence (Q8NGU9 whole entry): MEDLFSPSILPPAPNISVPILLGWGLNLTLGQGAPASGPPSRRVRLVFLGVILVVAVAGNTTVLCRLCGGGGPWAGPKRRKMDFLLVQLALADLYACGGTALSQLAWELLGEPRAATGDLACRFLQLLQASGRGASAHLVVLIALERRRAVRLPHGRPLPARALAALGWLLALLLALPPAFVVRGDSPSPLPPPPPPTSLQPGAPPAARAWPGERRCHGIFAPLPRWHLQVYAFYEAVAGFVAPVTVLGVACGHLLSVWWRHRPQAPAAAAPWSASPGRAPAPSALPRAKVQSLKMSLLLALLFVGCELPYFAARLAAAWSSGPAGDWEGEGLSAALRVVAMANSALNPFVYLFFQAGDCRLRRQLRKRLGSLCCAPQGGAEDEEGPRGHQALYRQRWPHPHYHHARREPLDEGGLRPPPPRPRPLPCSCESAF

[19] = molecular target: T14, 318 nonolfactory human GPCRs (Homo sapiens, UniProt P32245); details: MC4R; C21 5 µM
T14 construct: expressed in transfected cells; host or cells: HTLA cells, transient

[20] = molecular target: T15, 318 nonolfactory human GPCRs (Homo sapiens, UniProt Q8WXD0); details: RXFP2; C21 5 µM
T15 construct: expressed in transfected cells; host or cells: HTLA cells, transient

[21] = molecular target: T16, 318 nonolfactory human GPCRs (Homo sapiens, UniProt P46095); details: GPR6; C21 5 µM
T16 construct: expressed in transfected cells; host or cells: HTLA cells, transient

[22] = molecular target: 318 nonolfactory human GPCRs (Homo sapiens, UniProt Q8TDS4); details: HCA2; C21 5 µM
Sequence of 318 nonolfactory human GPCRs (Homo sapiens, UniProt Q8TDS4) (Q8TDS4 whole entry): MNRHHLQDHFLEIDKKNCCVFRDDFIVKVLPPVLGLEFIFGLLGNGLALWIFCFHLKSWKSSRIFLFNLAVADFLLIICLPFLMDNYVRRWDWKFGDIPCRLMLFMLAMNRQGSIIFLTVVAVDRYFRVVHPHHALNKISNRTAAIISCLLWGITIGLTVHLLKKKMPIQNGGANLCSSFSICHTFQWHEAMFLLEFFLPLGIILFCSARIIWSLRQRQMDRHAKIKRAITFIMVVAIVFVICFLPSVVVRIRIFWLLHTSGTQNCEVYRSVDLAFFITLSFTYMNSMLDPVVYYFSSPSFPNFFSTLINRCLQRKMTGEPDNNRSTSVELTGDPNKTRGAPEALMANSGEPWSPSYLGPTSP

[23] = molecular target: T17, 318 nonolfactory human GPCRs (Homo sapiens, UniProt P35368); details: ADRA1B; C21 5 µM
T17 construct: expressed in transfected cells; host or cells: HTLA cells, transient

[24] = molecular target: T18, 318 nonolfactory human GPCRs (Homo sapiens, UniProt Q96LB1); details: MRGPRX2; C21 5 µM
T18 construct: expressed in transfected cells; host or cells: HTLA cells, transient
T18 sequence (Q96LB1 whole entry): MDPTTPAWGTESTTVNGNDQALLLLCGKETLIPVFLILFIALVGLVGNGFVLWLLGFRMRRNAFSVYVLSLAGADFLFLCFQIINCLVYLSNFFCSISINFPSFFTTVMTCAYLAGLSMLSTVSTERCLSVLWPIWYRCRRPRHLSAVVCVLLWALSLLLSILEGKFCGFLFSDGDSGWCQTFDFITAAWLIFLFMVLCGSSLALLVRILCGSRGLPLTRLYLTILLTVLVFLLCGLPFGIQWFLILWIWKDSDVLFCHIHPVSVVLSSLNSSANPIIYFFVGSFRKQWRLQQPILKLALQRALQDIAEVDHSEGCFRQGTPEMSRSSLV

[25] = molecular target: T19, 318 nonolfactory human GPCRs (Homo sapiens, UniProt Q9H1C0); details: LPAR5; C21 5 µM
T19 construct: expressed in transfected cells; host or cells: HTLA cells, transient
T19 sequence (Q9H1C0 whole entry): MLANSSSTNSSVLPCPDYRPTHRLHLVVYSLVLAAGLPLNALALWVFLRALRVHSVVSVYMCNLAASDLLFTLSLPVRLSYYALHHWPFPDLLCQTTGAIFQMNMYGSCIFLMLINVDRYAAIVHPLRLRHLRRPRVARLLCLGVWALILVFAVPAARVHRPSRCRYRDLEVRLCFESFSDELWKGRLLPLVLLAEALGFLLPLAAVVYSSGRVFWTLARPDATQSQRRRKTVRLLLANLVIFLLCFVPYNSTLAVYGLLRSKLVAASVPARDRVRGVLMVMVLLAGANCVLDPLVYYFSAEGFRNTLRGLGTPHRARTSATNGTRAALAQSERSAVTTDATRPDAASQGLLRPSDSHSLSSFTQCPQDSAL

[26] = molecular target: T20, 318 nonolfactory human GPCRs (Homo sapiens, UniProt P41587); details: VIPR2; C21 5 µM
T20 construct: expressed in transfected cells; host or cells: HTLA cells, transient

[27] = molecular target: T21, 318 nonolfactory human GPCRs (Homo sapiens, UniProt Q92633); details: LPAR1; C21 5 µM
T21 construct: expressed in transfected cells; host or cells: HTLA cells, transient

[28] = molecular target: T22, 318 nonolfactory human GPCRs (Homo sapiens, UniProt P60893); details: GPR85; C21 5 µM
T22 construct: expressed in transfected cells; host or cells: HTLA cells, transient

[29] = molecular target: 318 nonolfactory human GPCRs (Homo sapiens, UniProt P28221); details: HTR1D; C21 5 µM
Sequence of 318 nonolfactory human GPCRs (Homo sapiens, UniProt P28221) (P28221 whole entry): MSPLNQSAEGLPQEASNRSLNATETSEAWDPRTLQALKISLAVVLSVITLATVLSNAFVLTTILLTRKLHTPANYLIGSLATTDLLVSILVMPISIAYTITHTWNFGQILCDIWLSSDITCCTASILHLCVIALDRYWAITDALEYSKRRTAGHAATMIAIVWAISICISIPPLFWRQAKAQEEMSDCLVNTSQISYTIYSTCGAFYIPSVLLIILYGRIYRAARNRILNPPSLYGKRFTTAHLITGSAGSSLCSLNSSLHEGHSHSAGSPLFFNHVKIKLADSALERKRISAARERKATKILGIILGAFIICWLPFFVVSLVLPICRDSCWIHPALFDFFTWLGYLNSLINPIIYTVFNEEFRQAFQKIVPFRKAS

[30] = molecular target: T23, 318 nonolfactory human GPCRs (Homo sapiens, UniProt P32248); details: CCR7; C21 5 µM
T23 construct: expressed in transfected cells; host or cells: HTLA cells, transient
T23 sequence (P32248 25-378): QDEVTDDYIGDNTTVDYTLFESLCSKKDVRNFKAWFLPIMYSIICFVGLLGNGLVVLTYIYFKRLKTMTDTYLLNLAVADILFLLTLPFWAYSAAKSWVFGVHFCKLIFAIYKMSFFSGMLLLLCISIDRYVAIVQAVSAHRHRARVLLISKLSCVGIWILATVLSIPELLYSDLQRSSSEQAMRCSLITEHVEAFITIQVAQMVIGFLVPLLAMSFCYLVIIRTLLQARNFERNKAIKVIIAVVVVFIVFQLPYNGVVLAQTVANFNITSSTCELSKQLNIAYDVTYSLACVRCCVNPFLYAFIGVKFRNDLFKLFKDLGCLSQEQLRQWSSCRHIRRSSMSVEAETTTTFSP

[31] = molecular target: T24, 318 nonolfactory human GPCRs (Homo sapiens, UniProt P46091); details: GPR1; C21 5 µM
T24 construct: expressed in transfected cells; host or cells: HTLA cells, transient
T24 sequence (P46091 whole entry): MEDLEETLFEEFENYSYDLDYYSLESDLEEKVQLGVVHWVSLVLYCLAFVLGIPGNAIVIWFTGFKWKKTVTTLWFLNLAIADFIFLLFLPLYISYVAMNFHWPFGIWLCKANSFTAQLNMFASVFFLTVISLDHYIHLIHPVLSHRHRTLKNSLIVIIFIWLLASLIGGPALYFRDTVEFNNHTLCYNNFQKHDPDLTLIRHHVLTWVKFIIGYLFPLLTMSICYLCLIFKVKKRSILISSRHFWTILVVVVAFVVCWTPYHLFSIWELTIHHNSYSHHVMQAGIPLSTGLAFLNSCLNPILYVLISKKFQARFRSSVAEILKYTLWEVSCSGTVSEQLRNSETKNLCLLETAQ

[32] = molecular target: T25, 318 nonolfactory human GPCRs (Homo sapiens, UniProt O00222); details: GRM8; C21 5 µM
T25 construct: expressed in transfected cells; host or cells: HTLA cells, transient

[33] = molecular target: T26, 318 nonolfactory human GPCRs (Homo sapiens, UniProt Q86SP6); details: GPR149; C21 5 µM
T26 construct: expressed in transfected cells; host or cells: HTLA cells, transient

## c1ccc2c(c1)N=C(N1CCNCC1)c1ccccc1N2 [C21, 11-(1-piperazinyl)-5H-dibenzo[b,e][1,4]diazepine]
[1]
  FOLD OVER BASAL: 0.9 fold and 0.7 fold and 0.6 fold
[2]
  FOLD OVER BASAL: 1.2 fold and 0.8 fold and 0.7 fold
[3]
  FOLD OVER BASAL: 0.8 fold and 1.1 fold and 0.7 fold
[4]
  FOLD OVER BASAL: 1.8 fold and 0.9 fold and 1.1 fold and 1.2 fold
[5]
  FOLD OVER BASAL: 0.8 fold and 0.9 fold and 1.1 fold
[6]
  FOLD OVER BASAL: 0.7 fold and 0.9 fold and 0.6 fold
[7]
  FOLD OVER BASAL: 0.5 fold and 0.7 fold and 0.6 fold
[8]; CALCRb
  FOLD OVER BASAL: 0.8 fold and 0.6 fold and 0.5 fold
[8]; GAL2
  FOLD OVER BASAL: 1.2 fold and 0.9 fold and 1.3 fold
[8]; GAL3
  FOLD OVER BASAL: 1.1 fold and 0.7 fold and 0.9 fold
[8]; HCTR2
  FOLD OVER BASAL: 1.1 fold and 0.8 fold and 0.6 fold
[8]; PK1
  FOLD OVER BASAL: 1.3 fold and 1.4 fold and 0.8 fold and 1.5 fold
[8]; PRRP
  FOLD OVER BASAL: 1 fold and 0.9 fold and 0.6 fold
[8]; single concentration 5 μM, PRESTO-Tango, quadruplicate
  agonist activity at GPCRome (fold of basal): agonist activity only at M4-, D2-, and H4-histamine receptors
[9]
  FOLD OVER BASAL: 0.9 fold and 0.8 fold and 0.6 fold
[10]
  FOLD OVER BASAL: 0.9 fold and 1.1 fold and 1 fold and 0.7 fold
[11]
  FOLD OVER BASAL: 0.9 fold and 1 fold
[12]
  FOLD OVER BASAL: 0.8 fold and 1.4 fold and 0.9 fold
[13]
  FOLD OVER BASAL: 0.7 fold and 1 fold and 0.9 fold
[14]
  FOLD OVER BASAL: 0.9 fold and 0.8 fold and 1 fold
[15]
  FOLD OVER BASAL: 0.8 fold and 0.9 fold and 0.7 fold
[16]
  FOLD OVER BASAL: 0.9 fold and 1.3 fold and 1.2 fold
[17]
  FOLD OVER BASAL: 0.8 fold and 0.5 fold and 1 fold
[18]
  FOLD OVER BASAL: 1.6 fold and 1.5 fold and 1.7 fold
[19]
  FOLD OVER BASAL: 1.2 fold and 0.6 fold
[20]
  FOLD OVER BASAL: 1.1 fold and 0.9 fold
[21]
  FOLD OVER BASAL: 0.9 fold and 1.3 fold and 1 fold and 1.2 fold
[22]
  FOLD OVER BASAL: 1.2 fold and 1.1 fold and 1.3 fold and 1.4 fold
[23]
  FOLD OVER BASAL: 1 fold and 0.8 fold and 1.1 fold and 0.7 fold
[24]
  FOLD OVER BASAL: 1.3 fold and 1.6 fold and 1.5 fold
[25]
  FOLD OVER BASAL: 0.8 fold and 1.2 fold and 0.6 fold and 0.7 fold
[26]
  FOLD OVER BASAL: 0.6 fold and 0.8 fold and 0.9 fold
[27]
  FOLD OVER BASAL: 1 fold and 0.8 fold
[28]
  FOLD OVER BASAL: 0.8 fold and 1.2 fold and 1 fold
[29]
  FOLD OVER BASAL: 1 fold and 1.1 fold and 1.3 fold
[30]
  FOLD OVER BASAL: 1.6 fold and 0.9 fold and 0.8 fold
[31]
  FOLD OVER BASAL: 1.1 fold and 1.4 fold and 0.8 fold and 1 fold
[32]
  FOLD OVER BASAL: 0.7 fold and 0.9 fold and 0.6 fold
[33]
  FOLD OVER BASAL: 0.8 fold and 0.5 fold and 0.7 fold and 0.9 fold
